Measured values published in US8541407B2 (ArQule, Inc., priority 2010, dated 2013).
pIC50: −log10 of the molar value.

Target: AKT1 (Homo sapiens (Human), UniProt P31749)
Experiment: Inactive Akt Alpha Screen Assay
Conditions: non *labeled: Akt Alpha Screen assay; read-out: AKT1 biochemical assay, IC50
Summary of the method: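 AKT1 activated in situ by PDK1, MAPKAPK2, lipid vesicles and ATP, then phosphorylating biotinylated crosstide for 30 min at room temperature. Stopped with 10 mM EDTA; phosphopeptide detected by AlphaScreen using phospho-AKT substrate antibody (1:350), Protein A acceptor and streptavidin donor beads, 90 min dark, ex 640/em 570 nm.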

AKT1, sequence (P31749 whole entry): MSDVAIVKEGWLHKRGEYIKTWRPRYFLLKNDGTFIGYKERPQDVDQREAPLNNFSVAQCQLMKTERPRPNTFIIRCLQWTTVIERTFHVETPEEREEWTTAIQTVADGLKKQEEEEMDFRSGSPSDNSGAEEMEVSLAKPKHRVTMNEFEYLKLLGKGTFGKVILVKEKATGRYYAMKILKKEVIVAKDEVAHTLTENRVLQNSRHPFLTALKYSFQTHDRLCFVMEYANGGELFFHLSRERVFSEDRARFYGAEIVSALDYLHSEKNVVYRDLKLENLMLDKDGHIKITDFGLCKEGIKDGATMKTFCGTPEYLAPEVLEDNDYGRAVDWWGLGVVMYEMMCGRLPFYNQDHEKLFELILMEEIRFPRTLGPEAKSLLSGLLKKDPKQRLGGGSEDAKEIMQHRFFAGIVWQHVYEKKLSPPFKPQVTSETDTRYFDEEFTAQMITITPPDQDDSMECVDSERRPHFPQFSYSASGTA

Row | Structure (SMILES) | pIC50
1 | CC(=O)Nc1ccc(S(=O)(=O)NCc2ccc(-c3nnc4n3-c3cccnc3Nc3ccccc3-4)cc2)cc1 [Example 120, N-(4-(N-(4-(9H-benzo[f]pyrido[2,3-b][1,2,4]triazolo[4,3-d][1,4]diazepin-3-yl)benzyl)sulfamoyl)phenyl) acetamide] | 6.85
2 | O=C(NCc1ccc(-c2nnc3n2-c2cccnc2Nc2ccccc2-3)cc1)Nc1cccc(F)c1 [Example 122, 1-(4-(9H-benzo[f]pyrido[2,3-b][1,2,4]triazolo[4,3-d][1,4]diazepin-3-yl)benzyl)-3-(3-fluorophenyl)urea] | 5.96
3 | O=C(NCc1ccc(-c2nnc3n2-c2cccnc2Nc2ccccc2-3)cc1)Nc1ccc(F)cc1 [Example 124, 1-(4-(9H-benzo[f]pyrido[2,3-b][1,2,4]triazolo[4,3-d][1,4]diazepin-3-yl)benzyl)-3-(4-fluorophenyl)urea] | 5.92
4 | Cc1cccc(NC(=O)NCc2ccc(-c3nnc4n3-c3cccnc3Nc3ccccc3-4)cc2)c1 [Example 125, 1-(4-(9H-benzo[f]pyrido[2,3-b][1,2,4]triazolo[4,3-d][1,4]diazepin-3-yl)benzyl)-3-(m-tolyl)urea] | 6.32
5 | c1ccc(-c2nnc(C3CCN(Cc4ccc(-c5nnc6n5-c5ccccc5Nc5ccccc5-6)cc4)CC3)[nH]2)nc1 [Example 129, 3-(4-((4-(5-(pyridin-2-yl)-4H-1,2,4-triazol-3-yl)piperidin-1-yl)methyl)phenyl)-9H-dibenzo[b,f][1,2,4]triazolo[4,3-d][1,4]diazepine] | 6.60
6 | N#Cc1ccc(C(=O)NC2CCN(Cc3ccc(-c4nnc5n4-c4cccnc4Nc4ccccc4-5)cc3)CC2)cc1 [Example 130, N-(1-(4-(9H-benzo[f]pyrido[2,3-b][1,2,4]triazolo[4,3-d][1,4]diazepin-3-yl)benzyl)piperidin-4-yl)-4-cyanobenzamide] | 5.77
7 | c1ccc2c(c1)Nc1ncccc1-n1c(-c3ccc(CN4CCC(c5nnc(-c6ccncc6)[nH]5)CC4)cc3)nnc1-2 [Example 131, 3-(4-((4-(5-(pyridin-4-yl)-4H-1,2,4-triazol-3-yl)piperidin-1-yl)methyl)phenyl)-9H-benzo[f]pyrido[2,3-b][1,2,4]triazolo[4,3-d][1,4]diazepine] | 6.77
8 | O=C(c1ccc(F)cc1)N1CCN(Cc2ccc(-c3nnc4n3-c3cccnc3Nc3ccccc3-4)cc2)CC1 [Example 132, (4-(4-(9H-benzo[f]pyrido[2,3-b][1,2,4]triazolo[4,3-d][1,4]diazepin-3-yl)benzyl)piperazin-1-yl)(4-fluorophenyl)methanone] | 5.49
9 | O=C(C1CCCC1)N1CCN(Cc2ccc(-c3nnc4n3-c3cccnc3Nc3ccccc3-4)cc2)CC1 [Example 133, (4-(4-(9H-benzo[f]pyrido[2,3-b][1,2,4]triazolo[4,3-d][1,4]diazepin-3-yl)benzyl)piperazin-1-yl)(cyclopentyl)methanone] | 5.47
10 | COc1ccccc1C(=O)N1CCN(Cc2ccc(-c3nnc4n3-c3cccnc3Nc3ccccc3-4)cc2)CC1 [Example 134, (4-(4-(9H-benzo[f]pyrido[2,3-b][1,2,4]triazolo[4,3-d][1,4]diazepin-3-yl)benzyl)piperazin-1-yl)(2-methoxyphenyl)methanone] | 6.37
11 | O=C(CCc1ccccc1)N1CCN(Cc2ccc(-c3nnc4n3-c3cccnc3Nc3ccccc3-4)cc2)CC1 [Example 135, 1-(4-(4-(9H-benzo[f]pyrido[2,3-b][1,2,4]triazolo[4,3-d][1,4]diazepin-3-yl)benzyl)piperazin-1-yl)-3-phenylpropan-1-one] | 5.47
12 | Cc1cccc(C(=O)N2CCN(Cc3ccc(-c4nnc5n4-c4cccnc4Nc4ccccc4-5)cc3)CC2)c1 [Example 136, (4-(4-(9H-benzo[f]pyrido[2,3-b][1,2,4]triazolo[4,3-d][1,4]diazepin-3-yl)benzyl)piperazin-1-yl)(m-tolyl)methanone] | 5.89
13 | COc1ccc(C(=O)N2CCN(Cc3ccc(-c4nnc5n4-c4cccnc4Nc4ccccc4-5)cc3)CC2)cc1 [Example 137, (4-(4-(9H-benzo[f]pyrido[2,3-b][1,2,4]triazolo[4,3-d][1,4]diazepin-3-yl)benzyl)piperazin-1-yl)(4-methoxyphenyl)methanone] | 5.85
14 | O=C(Cc1ccccc1)N1CCN(Cc2ccc(-c3nnc4n3-c3cccnc3Nc3ccccc3-4)cc2)CC1 [Example 140, 1-(4-(4-(9H-benzo[f]pyrido[2,3-b][1,2,4]triazolo[4,3-d][1,4]diazepin-3-yl)benzyl)piperazin-1-yl)-2-phenylethanone] | 5.22

Now from value to compound:

Row | pIC50 | Structure (SMILES)
15 | 5.66 | COc1cccc(C(=O)N2CCN(Cc3ccc(-c4nnc5n4-c4cccnc4Nc4ccccc4-5)cc3)CC2)c1 [Example 138, (4-(4-(9H-benzo[f]pyrido[2,3-b][1,2,4]triazolo[4,3-d][1,4]diazepin-3-yl)benzyl)piperazin-1-yl)(3-methoxyphenyl)methanone]
16 | 6.00 | N#Cc1ccc(C(=O)N2CCN(Cc3ccc(-c4nnc5n4-c4cccnc4Nc4ccccc4-5)cc3)CC2)cc1 [Example 139, 4-(4-(4-(9H-benzo[f]pyrido[2,3-b][1,2,4]triazolo[4,3-d][1,4]diazepin-3-yl)benzyl)piperazine-1-carbonyl)benzonitrile]
17 | 6.35 | O=C(c1ccccc1F)N1CCN(Cc2ccc(-c3nnc4n3-c3cccnc3Nc3ccccc3-4)cc2)CC1 [Example 141, (4-(4-(9H-benzo[f]pyrido[2,3-b][1,2,4]triazolo[4,3-d][1,4]diazepin-3-yl)benzyl)piperazin-1-yl)(2-fluorophenyl)methanone]
18 | 5.54 | Cc1cc(C(=O)N2CCN(Cc3ccc(-c4nnc5n4-c4cccnc4Nc4ccccc4-5)cc3)CC2)no1 [Example 142, (4-(4-(9H-benzo[f]pyrido[2,3-b][1,2,4]triazolo[4,3-d][1,4]diazepin-3-yl)benzyl)piperazin-1-yl)(5-methylisoxazol-3-yl)methanone]
19 | 5.31 | O=C(c1ccc(F)c(F)c1)N1CCN(Cc2ccc(-c3nnc4n3-c3cccnc3Nc3ccccc3-4)cc2)CC1 [Example 143, (4-(4-(9H-benzo[f]pyrido[2,3-b][1,2,4]triazolo[4,3-d][1,4]diazepin-3-yl)benzyl)piperazin-1-yl)(3,4-difluorophenyl)methanone]
20 | 5.72 | O=C(c1ccccc1)N1CCN(Cc2ccc(-c3nnc4n3-c3cccnc3Nc3ccccc3-4)cc2)CC1 [Example 144, (4-(4-(9H-benzo[f]pyrido[2,3-b][1,2,4]triazolo[4,3-d][1,4]diazepin-3-yl)benzyl)piperazin-1-yl)(phenyl)methanone]
21 | 6.10 | COC(=O)c1sccc1S(=O)(=O)NC1CCN(Cc2ccc(-c3nnc4n3-c3cccnc3Nc3ccccc3-4)cc2)CC1 [Example 145, methyl 3-(N-(1-(4-(9H-benzo[f]pyrido[2,3-b][1,2,4]triazolo[4,3-d][1,4]diazepin-3-yl)benzyl)piperidin-4-yl)sulfamoyl)thiophene-2-carboxylate]
22 | 5.17 | Cc1noc(C)c1S(=O)(=O)NC1CCN(Cc2ccc(-c3nnc4n3-c3cccnc3Nc3ccccc3-4)cc2)CC1 [Example 146, N-(1-(4-(9H-benzo[f]pyrido[2,3-b][1,2,4]triazolo[4,3-d][1,4]diazepin-3-yl)benzyl)piperidin-4-yl)-3,5-dimethylisoxazole-4-sulfonamide]
23 | 5.64 | O=S(=O)(NC1CCN(Cc2ccc(-c3nnc4n3-c3cccnc3Nc3ccccc3-4)cc2)CC1)c1ccccc1F [Example 147, N-(1-(4-(9H-benzo[f]pyrido[2,3-b][1,2,4]triazolo[4,3-d][1,4]diazepin-3-yl)benzyl)piperidin-4-yl)-2-fluorobenzenesulfonamide]
24 | 5.47 | O=S(=O)(CC1CCCCC1)NC1CCN(Cc2ccc(-c3nnc4n3-c3cccnc3Nc3ccccc3-4)cc2)CC1 [Example 148, N-(1-(4-(9H-benzo[f]pyrido[2,3-b][1,2,4]triazolo[4,3-d][1,4]diazepin-3-yl)benzyl)piperidin-4-yl)-1-cyclohexylmethanesulfonamide]
25 | 5.28 | O=S(=O)(NC1CCN(Cc2ccc(-c3nnc4n3-c3cccnc3Nc3ccccc3-4)cc2)CC1)C1CC1 [Example 149, N-(1-(4-(9H-benzo[f]pyrido[2,3-b][1,2,4]triazolo[4,3-d][1,4]diazepin-3-yl)benzyl)piperidin-4-yl)cyclopropanesulfonamide]
26 | 5.52 | COc1cccc(S(=O)(=O)NC2CCN(Cc3ccc(-c4nnc5n4-c4cccnc4Nc4ccccc4-5)cc3)CC2)c1 [Example 150, N-(1-(4-(9H-benzo[f]pyrido[2,3-b][1,2,4]triazolo[4,3-d][1,4]diazepin-3-yl)benzyl)piperidin-4-yl)-3-methoxybenzenesulfonamide]
27 | 5.30 | CC(=O)Nc1ccc(S(=O)(=O)NC2CCN(Cc3ccc(-c4nnc5n4-c4cccnc4Nc4ccccc4-5)cc3)CC2)cc1 [Example 151, N-(4-(N-(1-(4-(9H-benzo[f]pyrido[2,3-b][1,2,4]triazolo[4,3-d][1,4]diazepin-3-yl)benzyl)piperidin-4-yl)sulfamoyl)phenyl)acetamide]
28 | 5.74 | O=S(=O)(Cc1ccccc1)NC1CCN(Cc2ccc(-c3nnc4n3-c3cccnc3Nc3ccccc3-4)cc2)CC1 [Example 152, N-(1-(4-(9H-benzo[f]pyrido[2,3-b][1,2,4]triazolo[4,3-d][1,4]diazepin-3-yl)benzyl)piperidin-4-yl)-1-phenylmethanesulfonamide]
29 | 5.28 | Cc1nc(C)c(S(=O)(=O)NC2CCN(Cc3ccc(-c4nnc5n4-c4cccnc4Nc4ccccc4-5)cc3)CC2)s1 [Example 153, N-(1-(4-(9H-benzo[f]pyrido[2,3-b][1,2,4]triazolo[4,3-d][1,4]diazepin-3-yl)benzyl)piperidin-4-yl)-2,4-dimethylthiazole-5-sulfonamide]
30 | 5.19 | CC(C)CS(=O)(=O)NC1CCN(Cc2ccc(-c3nnc4n3-c3cccnc3Nc3ccccc3-4)cc2)CC1 [Example 154, N-(1-(4-(9H-benzo[f]pyrido[2,3-b][1,2,4]triazolo[4,3-d][1,4]diazepin-3-yl)benzyl)piperidin-4-yl)-2-methylpropane-1-sulfonamide]
